In one assay the test system is platelets. The assay can be described thus: Phenylhydrazine-induced platelet reduction in mice. The assay is classed as in vivo. The note with it: PHZ 100 mg/kg i.p. + PLAG 5 mg/kg oral. The protocol: Mice are injected with 100 mg/kg phenylhydrazine (PHZ), i.p., to induce anemia and reduction of platelets. 5 mg/kg PLAG is administered to the mice orally and blood samples are taken at 3 and 13 days after. In addition, for comparison, normal mice which are not treated with phenylhydrazine are prepared as a normal group, and mice treated with PHZ and olive oil instead of PLAG are prepared as a control group. The blood samples taken from the mice are treated with 0.5 ml EDTA (Minicollect tube, Greiner bio-one, Austria) and concentration of platelet is measured using automated blood sample analyzer BC-6800 (Mindray, Shenzhen, China) by number of platelet per […] (k: 1,000).

For assay [1], the system named is splenic nodules, primitive progenitor cells and megakaryocytes. The assay can be described thus: Colony forming units in spleen (CFUs) assay in heavily irradiated mice. The format is in vivo. The note with it: 50 mg/kg/d i.p. or p.o. The protocol:
In order to determine the in vivo effect of PLAG on the recovery of hematopoiesis, a CFUs assay is performed in heavily irradiated mice.

The subject of another assay is p38 MAPK. The assay can be described thus: p38 MAPK phosphorylation, western blot in IgE-antigen stimulated RBL-2H3 cells. The format is cell-based. The note with it: PLAG pre-incubated RBL-2H3 cells, IgE-antigen complex stimulation. The method, then:
Dephosphorylation of p38 MAPK and ERK1/2 in PLAG-treated RBL-2H3 cells is determined by western blot analysis using anti-phospho-p38 and anti-phospho-ERK1/2 respectively. To activate the p38 and ERK1/2 in RBL-2H3 cells, the cells are sensitized with 50 ng/mL of anti-DNP-IgE overnight. After washing with PBS three times, 20 ng/ml of DNP-HSA is added. Each cell lysate for western blot is prepared in the PLAG-treated RBL-2H3 cells in a dose-dependent manner and incubated for the same time (15 min). β-actin is used as internal controls. ERK1/2 and p38 phosphorylation start immediately after IgE-antigen complex stimulation and remain sufficiently activated for 5 min.
(Immunoblotting shows a protein as a band on a membrane.)

Another assay concerns STAT1. The assay can be described thus: STAT1 transcriptional activity reporter assay in HepG2 cells. The format is cell-based, human. The note with it: HepG2, 10 ng IFN-γ, PLAG 0.01-10 μg/ml, 12 hours. The protocol: By using STAT6 inhibitor (S6I), it is confirmed that the reduction of Complement 3 in HepG2 cells (human hepatocyte cell line) is regulated by STAT6. […] It is also confirmed that PLAG has selective efficacy on STAT6 over STAT1. FIG. 1 presents graphs showing STAT1 and STAT6 transcriptional activity in the PLAG treated HepG2 cells. NC refers to the unstimulated control cell. For the STAT1 assay, gene transfected HepG2 (human hepatocyte cell line) is treated with 10 ng of IFN-γ and serially diluted PLAG is added (0.01 μg/ml, 0.1 μg/ml, 1 μg/ml, and 10 μg/ml as shown) to see its effect on gene expression in the stimulated cell. For the STAT6 assay, gene transfected HepG2 cells are treated with 10 ng of IL-4 and again serially diluted PLAG is added (0.01 μg/ml, 0.1 μg/ml, 1 μg/ml, and 10 μg/ml as shown) to see its effect on gene expression in the stimulated cell. The assay is carried out following 12 hours incubation of treated cells.
A general note: A reporter such as luciferase makes a cellular process visible.

The test system of a further assay is C3. As to the kind of experiment: C3 in culture supernatant of HepG2 cells by ELISA. The format is cell-based, human. The note with it: HepG2, PLAG 1 to 100 μg/ml, IL-4 and TNF-α, 18 hr. The method, then: The incubated HepG2 cell lines are treated with PLAG (1˜100 μg/ml), followed by IL-4 and TNF-α, reacted for 1 hour, incubated for 18 hours at 37° C. and the supernatant isolated. Quantitation of the amount of C3 in the cellular culture medium (supernatant) from HepG2 cells is performed by ELISA using a commercially available monoclonal antibody (mAb, R&D Systems) and the manufacture's protocol; the results are presented in FIG. 3. C3 is expressed spontaneously under in vitro culture condition using 10% FCS added to HepG2 cells incubated for 12 hr. The cells are treated with different doses of PLAG from 1 to 100 μg/ml (Panel A, Panel B) or 10 and 100 μg/ml of S6I (Panel C), reacted with IL-4 and TNF-α for 1 hr and then incubated for 18 hr at 37° C. Cellular viability is confirmed using the WST-1 assay (Panel A).
(In general: An ELISA detects its analyte on a solid surface through an enzyme-linked reagent.)

The subject of a further assay is STAT6. The assay can be described thus: IL-4 induced STAT6 phosphorylation, western blot in U937, A549 and Jurkat cells. The assay is classed as cell-based. The note with it: PLAG 0.01 to 10 μg/ml, 10 ng/ml IL-4, 15 min. The protocol: Dephosphorylation of STAT6 is examined using anti-phosphorylated STAT6 in U937, A549, and Jurkat cell lysates treated with PLAG concentration from 0.01 to 10 μg/ml. Phosphorylation of STAT6 is induced by treatment with 10 ng/ml of IL-4. Dephosphorylation of STAT1 is examined in the U937 cell lysate treated with PLAG (0.01 to 10 μg/ml). Phosphorylation of STAT1 is induced by 10 ng of IFN-γ treatment. Dephosphorylation of STAT1 and STAT6 is examined at 15 min after stimulation with IFN-γ and IL-4 respectively, in the PLAG pretreated cells. […] The transcriptional activity of STAT6 is decreased by the dephosphorylation of STAT6. […] No effect of PLAG on STAT1 phosphorylation is observed.

For the next assay, the system named is Complement 3. As to the kind of experiment: Clinical study in healthy subjects: Complement 3 in blood. The assay is classed as in vivo, human. The protocol: A clinical study is conducted in Gwandong University MyungJi Hospital Clinical Study Center in Republic of Korea with 27 healthy patients to study immune-modulating effect of PLAG. Volunteers are tested for 30 days in vivo as oral administer (500 mg of PLAG per day) under a legitimate clinical approval. Complement 3 is counted using C3 assay kit. The analysis result is shown in FIG. 7, and change of immunoactivity by the administration of PLAG in healthy subjects is shown in Table 8 (effect of PLAG supplementation on immune function of peripheral blood after 4-wk intervention). As shown in FIG. 7 and Table 8, the majority of those who consume PLAG for a month (twenty-six (26) subjects out of 27 patients) show decreased complement 3 (C3), while the control group, who are treated with soybean oil, show both increase and decrease of C3.

The next assay relates to neutrophils. The assay can be described thus: Migration of neutrophils in LPS-injected mice (blood and lymph counts). The format is in vivo. The protocol:
Mice are injected with bacterial lipopolysaccharide (LPS) to provoke an inflammatory response, in the presence or absence of PLAG: […]

For the compound `CCCCC/C=C\C/C=C\CCCCCCCC(=O)OC(COC(C)=O)COC(=O)CCCCCCCCCCCCCCC` (racemic) [PLAG, 1-palmitoyl-2-linoleoyl-3-acetylglycerol], the “Platelet (day 3) Conc” value with platelets (day 3) is listed as 1072 ± 125.4 k/ul. Further, in the assay with platelets (day 13), the “Platelet (day 13) Conc” value is 1188.8 ± 115.6 k/ul. The “number of splenic nodules and numbers of primitive progenitor cells and megakaryocytes” value in assay [1] was “marked increase”. Moreover, in the assay on p38 MAPK, the p38 phosphorylation entry is listed as “down-regulated”. In addition, the “STAT1 expression (transcriptional activity)” value in the assay with STAT1 was “no effect”. Besides, the “expression of C3 in supernatant (ELISA)” value in the assay on C3 is “decreased dose-dependently”. Besides, the “IL-4 induced STAT6 phosphorylation” value in the assay on STAT6 (A549 cells), in the assay on STAT6 (Jurkat cells) and with STAT6 (U937 cells) was “inhibited with increasing PLAG concentrations” throughout. Further, the “subjects showing decreased complement 3 (C3)” value with Complement 3 (500 mg PLAG per day oral for a month) is on record as 26 subjects out of 27. The “decrease of average concentration of C3 in blood” value in the assay on Complement 3 (after administration of PLAG 500 mg per day, 30 days) is “about 10 mg/dL”. In addition, in the assay with Complement 3 (healthy subjects n = 27, 500 mg PLAG per day oral, after 4-wk intervention), the “C3, After” value is 99.7 ± 12.4 mg/dL. Besides, in the assay with Complement 3 (healthy subjects n = 27, before PLAG supplementation), the “C3, Before” value came to 109.5 ± 13.0 mg/dL. Moreover, in the assay with neutrophils (LPS + PLAG), the “Neutrophil count in blood” value worked out at 3.41 k/μl. Also, the “Neutrophil count in lymph” value in the assay on neutrophils (LPS + PLAG) is listed as 1.48 k/μl. In addition, the “migration of neutrophils to the lymph node” value with neutrophils (LPS + PLAG vs LPS only) was “inhibits migration”.

The values are drawn from patent US11357749B2, “Methods for treating neutropenia” (Enzychem Lifesciences Corporation, priority 2014, dated 2022).
